According to patent US5098931A, “7-substituted HMG-CoA reductase inhibitors” (Merck & Co., Inc., priority 1990, dated 1992):

Molecular target: T1, HMG-CoA reductase (Rattus norvegicus, UniProt P51639)
T1 sequence (P51639 1-887): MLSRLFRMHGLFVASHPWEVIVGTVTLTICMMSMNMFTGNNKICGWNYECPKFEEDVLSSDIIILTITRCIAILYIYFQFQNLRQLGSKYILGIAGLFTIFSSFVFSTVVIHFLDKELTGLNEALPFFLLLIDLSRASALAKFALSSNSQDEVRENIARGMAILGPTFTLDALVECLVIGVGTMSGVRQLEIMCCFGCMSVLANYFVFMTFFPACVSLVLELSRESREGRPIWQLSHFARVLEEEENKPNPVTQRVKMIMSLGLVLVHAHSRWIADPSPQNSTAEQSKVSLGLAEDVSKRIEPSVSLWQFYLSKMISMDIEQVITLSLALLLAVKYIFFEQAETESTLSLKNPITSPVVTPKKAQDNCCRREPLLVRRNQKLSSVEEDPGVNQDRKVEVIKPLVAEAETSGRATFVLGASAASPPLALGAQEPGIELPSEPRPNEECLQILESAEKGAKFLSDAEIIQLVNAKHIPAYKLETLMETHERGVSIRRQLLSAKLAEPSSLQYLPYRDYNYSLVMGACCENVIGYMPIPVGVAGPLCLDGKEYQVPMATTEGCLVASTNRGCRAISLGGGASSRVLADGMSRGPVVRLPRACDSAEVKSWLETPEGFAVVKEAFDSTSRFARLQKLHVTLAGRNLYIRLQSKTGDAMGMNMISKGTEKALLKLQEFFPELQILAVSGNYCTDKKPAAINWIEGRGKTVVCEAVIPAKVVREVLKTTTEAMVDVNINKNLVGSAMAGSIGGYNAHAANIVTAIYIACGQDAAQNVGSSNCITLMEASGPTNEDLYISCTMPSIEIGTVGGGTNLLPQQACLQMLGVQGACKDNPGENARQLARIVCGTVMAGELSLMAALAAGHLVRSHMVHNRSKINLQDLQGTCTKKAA
Assay: intrinsic HMG-CoA reductase inhibition, published in vitro protocol (J. Med. Chem., 28, p. 347-358 (1985))
Type: biochemical
Conditions: IC50 of test compound compared with that of compactin (mevastatin) determined simultaneously; compactin assigned a value of 100
Description: The intrinsic HMG-CoA reductase inhibition activity of the claimed compounds is measured in the in vitro protocol published in J. Med. Chem., 28, p. 347-358 (1985). […] Representative of the intrinsic HMG-CoA reductase inhibitory activities of the claimed compounds are the following relative potencies for compounds of formula (I).

SMILES | Relative Potency (Compactin = 100)
CCC(C)(C)C(=O)O[C@H]1[C@H](CO)[C@@H](C)C=C2C=C[C@H](C)[C@H](CC[C@@H]3C[C@@H](O)CC(=O)O3)[C@H]21 [6(R)-[2-[8(R)-(2,2-dimethylbutyryloxy)-2(S)-methyl-6(S)-methyl-7(S)-hydroxymethyl-1,2,6,7,8,8a(R)-hexahydronaphthyl-1(S)]ethyl]-4(R)-hydroxy-3,4,5,6-tetrahydro-2H-pyran-2-one] | 262
CCC(C)(C)C(=O)O[C@@H]1[C@H]2C(=C[C@H](C)[C@H]1[C@@H](C)O)C=C[C@H](C)[C@@H]2CC[C@@H]1C[C@@H](O)CC(=O)O1 [6R-[2-[8(R)-(2,2-dimethylbutyryloxy)-2(S)-methyl-6(S)-methyl-7(S)-(1(R)-hydroxyethyl)-1,2,6,7,8,8a(R)-hexahydronaphthyl-1(S)]ethyl]-4(R)-hydroxy-3,4,5,6-tetrahydro-2H-pyran-2-one] | 124
CCC(C)(C)C(=O)O[C@H]1[C@@H](O)[C@@H](C)C=C2C=C[C@H](C)[C@H](CC[C@@H]3C[C@@H](O)CC(=O)O3)[C@H]21 [6(R)-[2-[8(R)-(2,2-dimethylbutyryloxy)-2(S)-methyl-6(S)-methyl-7(S)-hydroxy-1,2,6,7,8,8a(R)-hexahydronaphthyl-1(S)]ethyl]-4(R)-hydroxy-3,4,5,6-tetrahydro-2H-pyran-2-one] | 214
CCC(C)(C)C(=O)O[C@H]1[C@H](C)[C@@H](C)C=C2C=C[C@H](C)[C@H](CC[C@@H]3C[C@@H](O)CC(=O)O3)[C@H]21 [6(R)-[2-[8(R)-(2,2-dimethylbutyryloxy)-2(S)-methyl-6(S)-methyl-7(R)-methyl-1,2,6,7,8,8a(R)-hexahydronaphthyl-1(S)]ethyl]-4(R)-hydroxy-3,4,5,6-tetrahydro-2H-pyran-2-one] | 174
CCC(C)(C)C(=O)O[C@@H]1[C@H]2C(=C[C@H](C)[C@H]1[C@H](O)c1ccccc1)C=C[C@H](C)[C@@H]2CC[C@@H]1C[C@@H](O)CC(=O)O1 [6R-[2-[8(R)-(2,2-dimethylbutyryloxy)-2(S)-methyl-6(S)-methyl-7(S)-(1(S)-hydroxybenzyl)-1,2,6,7,8,8a(R)-hexahydronaphthyl-1(S)]-ethyl]-4(R)-hydroxy-3,4,5,6-tetrahydro-2H-pyran-2-one] | 137
CCC(C)(C)C(=O)O[C@@H]1[C@H]2C(=C[C@H](C)[C@H]1[C@H](C)O)C=C[C@H](C)[C@@H]2CC[C@@H]1C[C@@H](O)CC(=O)O1 [6R-[2-[8(R)-(2,2-dimethylbutyryloxy)-2(S)-methyl-6(S)-methyl-7(S)-(1(S)-hydroxyethyl)-1,2,6,7,8,8a(R)-hexahydronaphthyl-1(S)]ethyl]-4(R)-hydroxy-3,4,5,6-tetrahydro-2H-pyran-2-one] | 350
